The text below walks through data of PubChem BioAssay (NCI).

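48-hour exposure; five concentrations; linearly interpolated endpoints. GI50: concentration for 50% inhibition of growth. TGI: total growth inhibition.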 Some results are limits rather than exact numbers.

As usually defined, the TGI is the concentration giving total growth inhibition. A lower TGI goes with greater sensitivity of the cells. Usually GI50 stands for the concentration giving 50% growth inhibition.

In the first test the test system is CAKI-1 renal. Briefly: DTP human tumour cell line panel, 48 h.
`CCOC(=O)C1=C(NC)OCC1=O` displayed a concentration for total growth inhibition (TGI) greater than 100 µM.

In the case of `CCOC(=O)C1(C)CCC(C(C(=O)O)C(=O)O)CC1=O` (stereo not drawn), the TGI was greater than 100 µM.

With `COC(=O)C1=C(C(=O)OC)C2(c3ccccc3)OC1(c1ccccc1)c1cc3ccccc3cc12`, the TGI stood at 2.83 µM.

The molecule `CC1NOC(=O)C1N=Nc1ccc(Cl)cc1Cl` (stereo not drawn) registered a TGI of 60.9 µM.

Take `O=C1NC(=O)C2C(=O)NC(=O)C1C2Cc1ccco1` (stereo not drawn): the TGI was greater than 100 µM.

`CCOC(=O)/C(=C/c1ccccn1)C(=O)c1ccccc1` had a TGI of 27.9 µM.

`O=C(c1ccccc1)[C@H]1Nc2ccc(Cl)cc2[C@H]2CCC[C@@H]12` displayed a TGI greater than 100 µM.

Molecule `COc1ccc2nc(NC(=O)C(=O)CC(=O)c3ccc([N+](=O)[O-])cc3)sc2c1` came in with a total growth inhibition concentration (TGI) greater than 100 µM.

The molecule `COc1cc(/C=C2\NC(=O)C(Cc3cc(OC)c(OC)c(C)c3OC)N(C(C)=O)C2=O)c(OC)c(C)c1OC` (stereo not drawn) came in with a total growth inhibition concentration (TGI) greater than 100 µM.

In turn, `O=NN(CCCl)C(=O)NC1CCC(CC(=O)O)CC1` (stereo not drawn) had a concentration for total growth inhibition (TGI) greater than 100 µM.

`C[C@H](C(=O)O)C(=O)NC(=O)N(Cc1ccccc1)N=O` registered a TGI greater than 100 µM.

As for `NNC(=O)C(=O)NN=C(C(Cl)(Cl)CO)C(Cl)(Cl)CO`, the concentration for total growth inhibition (TGI) is 97.4 µM.

As to `COc1ccc(/C=C2\C(=O)N(NC(C)=O)c3ccccc32)cc1`, the TGI was greater than 100 µM.

`COc1ccc2ccccc2c1C1=NC(C)(C)CO1` gave a TGI greater than 100 µM.

The molecule `NC1=NC(Cn2nc(-c3ccccc3)c3ccccc3c2=O)=NNC(=O)N1` gave a TGI greater than 100 µM.

`O=C(CCCC(=O)Nc1ccc(Cl)cc1Cl)CC(=O)c1ccc2ccccc2c1` had a TGI greater than 100 µM.

Regarding `O=C(NCCc1ccccc1)C1C(=O)C(=O)N(CCc2ccccc2)C1=O` (stereo not drawn), the total growth inhibition concentration (TGI) was greater than 100 µM.

Consider `OC(c1ccccc1Br)(c1ccccc1Br)C(F)(F)F`, for which the TGI is greater than 100 µM.

On to `CC(=O)OC1COC(N2CCc3cc([N+](=O)[O-])ccc32)C(OC(C)=O)C1OC(C)=O` (stereo not drawn), for which the concentration for total growth inhibition (TGI) is greater than 100 µM.

Take `CCOC(=O)C1S(=O)(=O)OCCOS1(=O)=O`: the TGI is greater than 100 µM.

`Cc1nc2ccccc2c(=O)n1/N=C(\N=Nc1ccccc1Cl)c1ccccc1Cl` returned a total growth inhibition concentration (TGI) of 63.4 µM.

As for `CCc1cccc(CC)c1NC(=O)/C(Cl)=C(/Cl)C(=O)O`, the concentration for total growth inhibition (TGI) was 32.6 µM.

As to `O=[N+]([O-])c1ccc(-c2ccc(C3=Nn4c(CNc5ccccc5Cl)nnc4SC3)o2)cc1`, the TGI was greater than 100 µM.

Molecule `CCCC(=O)CC(C)C(=O)C(=O)NC12CC3CC(CC(C3)C1)C2` (stereo not drawn) showed a concentration for total growth inhibition (TGI) greater than 100 µM.

In turn, `CC(=O)OCC(=O)[C@@]1(O)CC[C@H]2[C@@H]3C[C@H](C)C4=CC(=O)C=C[C@]4(C)[C@@]3(F)[C@@H](O)C[C@@]21C` returned a TGI greater than 100 µM.

Turning to `Nc1nc(=S)c2c(ncn2CCO)[nH]1`, the TGI is greater than 100 µM.

In turn, `COc1cc(/C=C/c2csnn2)cc(OC)c1OC` returned a concentration for total growth inhibition (TGI) greater than 100 µM.

On to `c1ccc(C(c2ccccc2)c2ccccn2)cc1`, for which the TGI is greater than 100 µM.

As for `N#CC1CC(c2ccccc2)Nc2cc(Cl)ccc2N1` (stereo not drawn), the total growth inhibition concentration (TGI) is greater than 100 µM.

The subject of a further test is COLO 205 colon. Kind of test: DTP human tumour cell line panel, 48 h.
For the molecule `CCOC(=O)C1=C(NC)OCC1=O`, the concentration for total growth inhibition (TGI) is greater than 100 µM.

Molecule `CCOC(=O)C1(C)CCC(C(C(=O)O)C(=O)O)CC1=O` (stereo not drawn) yielded a TGI greater than 100 µM.

Molecule `COC(=O)C1=C(C(=O)OC)C2(c3ccccc3)OC1(c1ccccc1)c1cc3ccccc3cc12` returned a concentration for total growth inhibition (TGI) of 4.18 µM.

The molecule `CC1NOC(=O)C1N=Nc1ccc(Cl)cc1Cl` (stereo not drawn) returned a TGI of 39 µM.

`O=C1NC(=O)C2C(=O)NC(=O)C1C2Cc1ccco1` (stereo not drawn) returned a total growth inhibition concentration (TGI) greater than 100 µM.

Regarding `CCOC(=O)/C(=C/c1ccccn1)C(=O)c1ccccc1`, the TGI stood at 28.3 µM.

In the case of `O=C(c1ccccc1)[C@H]1Nc2ccc(Cl)cc2[C@H]2CCC[C@@H]12`, the TGI came to 91.7 µM.

Turning to `COc1ccc2nc(NC(=O)C(=O)CC(=O)c3ccc([N+](=O)[O-])cc3)sc2c1`, the TGI was greater than 100 µM.

`CC(=O)Nc1ccc(C2CC(c3ccc([N+](=O)[O-])cc3)=Nc3ccccc3S2=O)cc1` (stereo not drawn): the total growth inhibition concentration (TGI) came to 44.9 µM.

As to `COc1cc(/C=C2\NC(=O)C(Cc3cc(OC)c(OC)c(C)c3OC)N(C(C)=O)C2=O)c(OC)c(C)c1OC` (stereo not drawn), the TGI was greater than 100 µM.

On to `COc1cc(C(=O)/C=C/c2cccc(Nc3ccnc4cc(Cl)ccc34)c2)cc(OC)c1OC`, for which the GI50 was 1.34 µM and the TGI came out at 3.69 µM.

For `O=NN(CCCl)C(=O)NC1CCC(CC(=O)O)CC1` (stereo not drawn), the TGI is greater than 100 µM.

As for `C[C@H](C(=O)O)C(=O)NC(=O)N(Cc1ccccc1)N=O`, the concentration for total growth inhibition (TGI) was greater than 100 µM.

Turning to `NNC(=O)C(=O)NN=C(C(Cl)(Cl)CO)C(Cl)(Cl)CO`, the TGI is greater than 100 µM.

In turn, `COc1ccc(/C=C2\C(=O)N(NC(C)=O)c3ccccc32)cc1` came in with a concentration for total growth inhibition (TGI) greater than 100 µM.

Consider `COc1ccc2ccccc2c1C1=NC(C)(C)CO1`, for which the concentration for total growth inhibition (TGI) is greater than 100 µM.

Turning to `NC1=NC(Cn2nc(-c3ccccc3)c3ccccc3c2=O)=NNC(=O)N1`, the concentration for total growth inhibition (TGI) was greater than 100 µM.

`O=C(CCCC(=O)Nc1ccc(Cl)cc1Cl)CC(=O)c1ccc2ccccc2c1` returned a TGI greater than 100 µM.

`OC(c1ccccc1Br)(c1ccccc1Br)C(F)(F)F` had a TGI of 33.1 µM.

Consider `CC(=O)OC1COC(N2CCc3cc([N+](=O)[O-])ccc32)C(OC(C)=O)C1OC(C)=O` (stereo not drawn), for which the concentration for total growth inhibition (TGI) is greater than 100 µM.

Take `CCOC(=O)C1S(=O)(=O)OCCOS1(=O)=O`: the total growth inhibition concentration (TGI) was greater than 100 µM.

The molecule `CC12OC(=O)C(C#N)C1(C)C1C(=O)CCCC12` (stereo not drawn) registered a TGI greater than 100 µM.

Molecule `Cc1nc2ccccc2c(=O)n1/N=C(\N=Nc1ccccc1Cl)c1ccccc1Cl` showed a concentration for total growth inhibition (TGI) greater than 100 µM.

In turn, `CCc1cccc(CC)c1NC(=O)/C(Cl)=C(/Cl)C(=O)O` gave a concentration for total growth inhibition (TGI) of 30.3 µM.

For the molecule `O=[N+]([O-])c1ccc(-c2ccc(C3=Nn4c(CNc5ccccc5Cl)nnc4SC3)o2)cc1`, the concentration for total growth inhibition (TGI) was greater than 100 µM.

Molecule `CCCC(=O)CC(C)C(=O)C(=O)NC12CC3CC(CC(C3)C1)C2` (stereo not drawn) returned a concentration for total growth inhibition (TGI) greater than 100 µM.

The molecule `CC(=O)OCC(=O)[C@@]1(O)CC[C@H]2[C@@H]3C[C@H](C)C4=CC(=O)C=C[C@]4(C)[C@@]3(F)[C@@H](O)C[C@@]21C` registered a concentration for total growth inhibition (TGI) greater than 100 µM.

Turning to `Nc1nc(=S)c2c(ncn2CCO)[nH]1`, the total growth inhibition concentration (TGI) was greater than 100 µM.

For `c1ccc(C(c2ccccc2)c2ccccn2)cc1`, the concentration for total growth inhibition (TGI) was greater than 100 µM.

On to `N#CC1CC(c2ccccc2)Nc2cc(Cl)ccc2N1` (stereo not drawn), for which the total growth inhibition concentration (TGI) was greater than 83.4 µM.

For the next test, the system named is HT29 colon. Briefly: DTP human tumour cell line panel, 48 h.
The molecule `CCOC(=O)C1=C(NC)OCC1=O` returned a TGI greater than 100 µM.

For `CCOC(=O)C1(C)CCC(C(C(=O)O)C(=O)O)CC1=O` (stereo not drawn), the TGI is greater than 100 µM.

As for `COC(=O)C1=C(C(=O)OC)C2(c3ccccc3)OC1(c1ccccc1)c1cc3ccccc3cc12`, the TGI came to 3.49 µM.
